In PubChem BioAssay (NCI):
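Test compounds were applied to cells in 96-well plates for 48 hours at 5 doses. Here, GI50 denotes the concentration required for 50% inhibition of growth. TGI: total growth inhibition.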

Experiments:
Experiment in all cases: inhibition of tumour cell growth, NCI panel, 48 h
SK-MEL-5 melanoma = tested on: SK-MEL-5 melanoma
TK-10 renal = tested on: TK-10 renal
SK-MEL-28 melanoma = tested on: SK-MEL-28 melanoma
OVCAR-5 ovarian = tested on: OVCAR-5 ovarian
MCF7 breast = tested on: MCF7 breast
HCT-116 colon = tested on: HCT-116 colon
DU-145 prostate = tested on: DU-145 prostate
U251 CNS = tested on: U251 CNS
MDA-MB-435 = tested on: MDA-MB-435
SW-620 colon = tested on: SW-620 colon
RPMI-8226 leukemia = tested on: RPMI-8226 leukemia
786-0 renal = tested on: 786-0 renal
HL-60(TB) leukemia = tested on: HL-60(TB) leukemia
HCT-15 colon = tested on: HCT-15 colon
A549 NSCLC = tested on: A549 NSCLC
A498 renal = tested on: A498 renal
UO-31 renal = tested on: UO-31 renal
HCC-2998 colon = tested on: HCC-2998 colon
SNB-75 CNS = tested on: SNB-75 CNS

SMILES	TGI (SK-MEL-5 melanoma) [µM]	TGI (TK-10 renal) [µM]	TGI (SK-MEL-28 melanoma) [µM]	TGI (OVCAR-5 ovarian) [µM]	TGI (MCF7 breast) [µM]	TGI (HCT-116 colon) [µM]	TGI (DU-145 prostate) [µM]	TGI (U251 CNS) [µM]	TGI (MDA-MB-435) [µM]	TGI (SW-620 colon) [µM]	TGI (RPMI-8226 leukemia) [µM]	TGI (786-0 renal) [µM]	TGI (HL-60(TB) leukemia) [µM]	TGI (HCT-15 colon) [µM]	TGI (A549 NSCLC) [µM]	TGI (A498 renal) [µM]	TGI (UO-31 renal) [µM]	TGI (HCC-2998 colon) [µM]	TGI (SNB-75 CNS) [µM]	GI50 (HCT-116 colon) [µM]
O=C(Nc1nc(C23CC4CC(CC(C4)C2)C3)cs1)c1c(O)c2ccccc2[nH]c1=O	> 100	> 100	> 100	> 100	> 100	> 100	> 100	> 100	> 100	> 100	> 100	> 100	> 100	> 100	> 100	> 100	> 100	> 100		
COC(=O)[C@@H]1C=C[C@H](OC2OC(COC(C)=O)C(OC(C)=O)C(OC(C)=O)C2OC(C)=O)n2c(=O)c3ccccc3c(=O)n21 (some centres undefined)	30.2	18.3	27.8	29.6	29.3	22.8	38.3	25.1	23	24.9	35.6	58.9	30.2	22.7	47.4	32.6	27.5	29.6	20.6	
O=S(=O)(O)CCCC1S(=O)(=O)OCCOS1(=O)=O	> 100	> 100	> 100	> 100	> 100	> 100	> 100	> 100	> 100	> 100	> 100	> 100	> 100	> 100		> 100	> 100	> 100	> 100	
Cc1nc2ccc(Cl)cc2c2c1CCS2	77.7	> 100	> 100	> 100	> 100	> 100	> 100	> 100	> 100	> 100	71.4	> 100	65	> 100	> 100	99.2	> 100	> 100		
C=CCOC(=O)Cn1cc(C)c(=O)[nH]c1=O	> 100	> 100	> 100		> 100	> 100	> 100	> 100	> 100	> 100	> 100	> 100	> 100	> 100	> 100	> 100	> 100	> 100	> 100	
C=[N+](CNC(=O)CNC(=O)C(Cc1ccc([N+](=O)[O-])cc1)NC(=O)OC(C)(C)C)C(=O)CNC(=O)C(Cc1ccc([N+](=O)[O-])cc1)NC(=O)OC(C)(C)C (centres undefined)	> 100	> 100	72.6	> 100	> 100	> 100	> 100	> 100	62.7	> 100	50.4	> 100	46.5	> 100	> 100	> 100	> 100	> 100	> 100	
CCOC(=O)C1C(c2ccc(OC)cc2)c2c([nH]n(-c3ccccc3)c2=O)CC1(O)OCC (centres undefined)	> 100	> 100	> 100	> 100	> 100	> 100	> 100	> 100	> 100	> 100	> 100	> 100	15	> 100	> 100	> 100	> 100	> 100	> 100	
Cc1ccc(Cc2n[nH]c(=O)n2-c2ccccc2)cc1	> 100	> 100	> 100	> 100	> 100	> 100	> 100	> 100	> 100	> 100	76	> 100	> 100	> 100	> 100	> 100	> 100	> 100	> 100	
COc1ccc(/C=C2\C(=O)N(C)C(=O)c3cc(OC)c(OC)cc32)cc1OC	89.8	> 100		> 100	> 100	> 100	> 100	> 100	> 100	> 100	66.9	> 100	40.1	> 100	> 100	> 100	> 100	> 100		
CCCCCCNC(=O)c1cc(CCc2cc(O)ccc2O)ccc1O	15.6	9.15	7.37	19.3	12.4	13.6	22.7	5.58	19.6	> 75.9		4.26	4.11	12.8	36.3	15.4	2.98	9.68	14.4	3.59
CCCN1CC=C(c2cc(C(=O)OCC)[nH]c2-c2cc(C)no2)C1=O	> 100		> 100	> 100	> 100	> 100	> 100	> 100	> 100	> 100	> 100	> 100	> 100	> 100	> 100	> 100	> 100	> 100	> 100	
CC(=O)NNc1nc(C)c(C(/C=C/c2ccc([N+](=O)[O-])cc2)=N/N)s1	> 100	> 100	> 100	> 100	> 100	> 100	> 100	> 100	> 100	> 100	89.2	> 100	> 100	> 100	> 100	> 100	> 100	> 100	> 100	
Cc1n[nH]c(=O)n1C1CCCC1	> 100	> 100	> 100	> 100	> 100	> 100	> 100	> 100	> 100	> 100	> 100	> 100	> 100	> 100	> 100	> 100	> 100	> 100	> 100	
O=C(N/N=C(/COc1ccc(Cl)cc1)N=Cc1cccnc1)c1ccncc1		> 100	> 100	> 100	> 100	> 100	> 100	> 100	> 100	> 100	> 100	> 100	> 100	> 100	> 100	> 100		> 100	> 100	
Cc1ccc(O)c(C(c2ccc([N+](=O)[O-])cc2)c2cc(C)ccc2O)c1	> 100	30.4	38.4	28.9	20.3	40.6	27.4	48.8	28.5	32.1	29.8	44.5	7.61	23.8	25.6	43	15.2	9.66	15.5	
COc1ccc(/C=C/c2sc3ccccc3[n+]2CCCCI)cc1OC	> 10	> 10	> 10	> 10	> 10	> 10	> 10	> 10	> 10	> 10	> 10	> 10	7.48	> 10	> 10	> 10	> 10	> 10	> 10	
CC1=NOC2(C1)C(=O)Nc1ccccc12 (centres undefined)	> 100	> 100	> 100	> 100	> 100	> 100	> 100	> 100	> 100	> 100	> 100	> 100	> 100	> 100	> 100	96.4		> 100	> 100	
Cc1ccc(S(=O)(=O)n2c3c(c4ccccc42)CCN2C(=O)C(S(=O)(=O)c4ccccc4)=CCC32)cc1 (centres undefined)	0.337	0.282	0.353	0.581	0.656		0.375	0.404	0.445	0.715	0.749	0.346	0.468	0.421	2.77	0.582	0.384	0.44	1.41	
CN(C)Cc1cc(N=Nc2cccc(Cl)c2)ccc1O	14.2	23.2	26.9	30.1	29	52	27.9	33.1	15.8	23.7	55.8	27.4	37.4	20.5	32.2	23.8	23.3	27.9	39.1	
O=C(NCCCCN(CCCNC(=O)C(F)(F)F)Cc1ccc2ccccc2c1)C(F)(F)F	48.9	47.9	31.5	32.6	27.8	33.9	56.1	67.2	35.7	32.4		30.6	> 100	31.1	> 100	62.2	20.5	26.8	28.5	
Cc1ccc(Cc2n[nH]c(=O)n2/N=C\CC/C=N\n2c(Cc3ccc(C)cc3)n[nH]c2=O)cc1	> 100	> 100	> 100	> 100	> 100	> 100	> 100	53.7	> 100	> 100	> 100	41	> 100	> 100	> 100	> 100	> 100	> 100	34.7	
Cn1c(N)c(C(N)=O)[nH]c1=S	> 100	> 100	> 100	> 100	> 100		> 100	> 100	> 100	> 100	> 100	> 100	> 100	> 100	> 100	> 100	> 100	> 100	> 100	
CC(C)(C)n1c(=O)[nH]n(C2NN=Cc3cccc4cccc2c34)c1=O (centres undefined)		> 100	> 100	> 100	> 100	> 100	> 100	> 100	> 100	> 100	74.6	> 100	42.1	> 100	63.4	64.9	70.3	> 100	85.6	
CN(C)c1ccc(/C=C(\NC(=O)c2ccccc2)C(=O)NCC(=O)O)cc1	> 100		> 100	> 100	> 100	> 100	> 100	> 100	> 100	> 100	> 100	> 100	> 100	> 100	> 100	> 100	> 100	> 100	> 100	
N#Cc1n[nH]n(C2CCCCC2)c1=O	> 100	> 100	> 100	> 100	> 100	> 100	> 100	> 100	> 100	> 100		> 100	> 100	> 100	> 100	> 100	> 100	> 100	> 100	
